Like-named read-outs stand apart in the source and are kept apart here.
How the values were obtained:
Influenza A2 /Aichi/3/68 = assay: in vitro anti-myxovirus activity, influenza A2 /Aichi/3/68, G-2 cells (% inhibition of hemadsorption); format: cell-based, Influenza A2 /Aichi/3/68 (human); conditions: for inhibition at 100 µg/mL: 100 μg/ml; for inhibition at 40 µg/mL: 40 μg/ml; for inhibition at 30 µg/mL: 30 μg/ml; for inhibition at 50 µg/mL: 50 μg/ml; for inhibition at 60 µg/mL: 60 μg/ml; for inhibition at 70 µg/mL: 70 μg/ml; for inhibition at 80 µg/mL: 80 μg/ml; for inhibition at 90 µg/mL: 90 μg/ml; for inhibition at 10 µg/mL: 10 μg/ml; for inhibition at 20 µg/mL: 20 μg/ml
[1] = cytotoxicity in G-2 cells; format: cell-based; conditions: human; for CC50: 50% inhibition of cell growth, read-out: Cytotoxicity CTD50; for MNTC: maximal non-toxic concentration, read-out: Cytotoxicity CTD0
Description: In preparing the compounds for testing, they were handled aseptically throughout. The compounds were dissolved in a minimum amount of a suitable solvent and the final dilutions were made up to the required volume in a complete culture medium used in assay and in concentration not exceeding the predetermined maximum non-toxic levels.
The cell culture used in all primary in vitro anti-myxovirus assays was an established cell line of the human conjunctiva (G-2 cells). The cytotoxic studies of each of the compounds were performed prior to testing for antiviral activity to determine level of response of the cells to the potentially toxic action of the compounds.

[2] = toxicity of in vitro active anti-myxovirus compounds in mice; conditions: mouse, in vivo, ip, I/P
mice = assay: as above; conditions: for Maximal non-toxic dose LD0, acute / Maximal non-toxic dose LD0, subacute: I/P; for toxicity compared with Amantadine or compound I: words
Influenza (swine) = assay: cells; format: cell-based; conditions: for inhibition at 30 µg/mL: 30 μg/ml; for inhibition at 80 µg/mL: 80 μg/ml; for inhibition at 100 µg/mL: 100 μg/ml
[3] = Homo sapiens, 100 TCID50, read-out: % Inhibition
[4] = 50% toxic dose LD50, acute, acute
[5] = 50% toxic dose LD50, subacute, subacute

## CN(C)C[C@H]1[C@H](N)[C@H]2C[C@@H]1c1ccccc12 (relative stereo) [Compound III, 1,2,3,4-tetrahydro-1,4-methanonaphthalen-exo-3-dimethylaminomethyl-endo-2-amine]
Influenza A2 /Aichi/3/68; Homo sapiens, 33.3 μg/ml, 100 TCID50
  inhibition at 33.3 µg/mL: 3%
Influenza A2 /Aichi/3/68; Homo sapiens, 66.7 μg/ml, 100 TCID50
  inhibition at 66.7 µg/mL: 87%
Influenza A2 /Aichi/3/68; [3]
  inhibition at 100 µg/mL: 90%
[1]
  CC50: > 100 µg/mL
  MNTC: > 100 µg/mL
[2]; [4]
  LD50: 750 mg/kg
[2]; [5]
  LD50: 500 to 750 mg/kg
mice
  Maximal non-toxic dose LD0, acute: 500 mg/kg
  Maximal non-toxic dose LD0, subacute: 250 mg/kg
  toxicity compared with Amantadine or compound I: far less toxic than either the known antiviral agent Amantadine or compound I

## NC12CC3CC(CC(C3)C1)C2 [Amantadine, reference compound]
Influenza A2 /Aichi/3/68; 56.2 TCID50
  inhibition at 40 µg/mL: 0%
Influenza A2 /Aichi/3/68; 100 TCID50
  inhibition at 40 µg/mL: 0%
Influenza A2 /Aichi/3/68; Homo sapiens, 56.2 TCID50
  inhibition at 30 µg/mL: 0%
  inhibition at 50 µg/mL: 0%
  inhibition at 60 µg/mL: 53%
  inhibition at 70 µg/mL: 83%
  inhibition at 80 µg/mL: 70%
  inhibition at 90 µg/mL: 97%
  inhibition at 100 µg/mL: 87%
Influenza A2 /Aichi/3/68; Homo sapiens, 100 TCID50
  inhibition at 30 µg/mL: 0%
  inhibition at 50 µg/mL: 0%
  inhibition at 60 µg/mL: 0%
  inhibition at 70 µg/mL: 33%
  inhibition at 80 µg/mL: 27%
  inhibition at 90 µg/mL: 67%
  inhibition at 100 µg/mL: 43%
Influenza (swine)
  inhibition at 30 µg/mL: 0%
  inhibition at 80 µg/mL: 100%
  inhibition at 100 µg/mL: 100%
Influenza (swine); 40 μg/ml
  inhibition at 40 µg/mL: 10%
Influenza (swine); 40 μg/ml, listed as AMANTADINE HYDROCHLORIDE
  % Inhibition: 17%
Influenza (swine); 50 μg/ml
  inhibition at 50 µg/mL: 67%
Influenza (swine); 50 μg/ml, listed as AMANTADINE HYDROCHLORIDE
  % Inhibition: 80%
Influenza (swine); 60 μg/ml
  inhibition at 60 µg/mL: 83%
Influenza (swine); 60 μg/ml, listed as AMANTADINE HYDROCHLORIDE
  % Inhibition: 90%
Influenza (swine); 70 μg/ml
  inhibition at 70 µg/mL: 97%
Influenza (swine); 70 μg/ml, listed as AMANTADINE HYDROCHLORIDE
  % Inhibition: 93%
Influenza (swine); 90 μg/ml
  inhibition at 90 µg/mL: 100%
[1]
  CC50: > 100 µg/mL
  MNTC: > 100 µg/mL
mice
  Maximal non-toxic dose LD0, acute: 175 mg/kg
  Maximal non-toxic dose LD0, subacute: 150 mg/kg

## NC1C2CCC(c3ccccc32)C1N (stereo not drawn) [Compound VII, 1,2,3,4-tetrahydro-1,4-ethanonaphthalen-exo-3-endo-2-diamine]
Influenza A2 /Aichi/3/68; 31.6 TCID50
  inhibition at 40 µg/mL: 87%
Influenza A2 /Aichi/3/68; 100 TCID50
  inhibition at 40 µg/mL: 30%
Influenza A2 /Aichi/3/68; Homo sapiens, 31.6 TCID50
  inhibition at 10 µg/mL: 0%
  inhibition at 20 µg/mL: 7%
  inhibition at 30 µg/mL: 60%
  inhibition at 50 µg/mL: 95%
  inhibition at 60 µg/mL: 100%
  inhibition at 70 µg/mL: 100%
  inhibition at 80 µg/mL: 100%
  inhibition at 90 µg/mL: 100%
Influenza A2 /Aichi/3/68; Homo sapiens, 100 TCID50
  inhibition at 10 µg/mL: 0%
  inhibition at 20 µg/mL: 0%
  inhibition at 30 µg/mL: 20%
  inhibition at 50 µg/mL: 67%
  inhibition at 60 µg/mL: 80%
  inhibition at 70 µg/mL: 57%
  inhibition at 80 µg/mL: 60%
  inhibition at 90 µg/mL: 80%
Influenza A2 /Aichi/3/68; Homo sapiens, 31.6 TCID50, read-out: % Inhibition
  inhibition at 100 µg/mL: 100%
Influenza A2 /Aichi/3/68; [3]
  inhibition at 100 µg/mL: 83%
Influenza (swine); 10 μg/ml
  inhibition at 10 µg/mL: 0%
Influenza (swine); 20 μg/ml
  inhibition at 20 µg/mL: 56%
Influenza (swine); 20 μg/ml, listed as 1,2,3,4-TETRAHYDRO-1,4-[…]-EXO-3-ENDO-2-DIAMINE.2HCl
  % Inhibition: 70%
Influenza (swine)
  inhibition at 30 µg/mL: 90%
  inhibition at 80 µg/mL: 100%
  inhibition at 100 µg/mL: 100%
Influenza (swine); 40 μg/ml
  inhibition at 40 µg/mL: 97%
Influenza (swine); 50 μg/ml
  inhibition at 50 µg/mL: 100%
Influenza (swine); 60 μg/ml
  inhibition at 60 µg/mL: 100%
[1]
  CC50: > 100 µg/mL
  MNTC: > 100 µg/mL
[2]; [4]
  LD50: 775 to 800 mg/kg
[2]; [5]
  LD50: 800 mg/kg
mice
  Maximal non-toxic dose LD0, acute: 700 mg/kg
  Maximal non-toxic dose LD0, subacute: 700 mg/kg
  toxicity compared with Amantadine or compound I: far less toxic than either the known antiviral agent Amantadine or compound I

— patent US3932512A, “Antiviral 1,2,3,4-tetrahydro-1,-alkano naphthalenamine derivatives” (priority 1972, dated 1976)
